Values quoted from earlier work as cited in US20260183325A1, “SUSTAINED OR IMMEDIATE RELEASE ENERGY, MENTAL FOCUS, AND PHYSICAL RECOVERY NUTRITIONAL SUPPLEMENT BLEND, DIETARY SUPPLEMENT, FUNCTIONAL FOOD AND FUNCTIONAL BEVERAGE” (Matchstick Brands, LLC, priority 2023, published 2026).

Details: during working memory processes (Koppelstatter et al. 2008)

Q: Which “fMRI signal changes in a network of brain areas associated with executive and attentional functions” value does the source give for `Cn1c(=O)c2c(ncn2C)n(C)c1=O` [caffeine] here?
A: The value was “increases”.
